# Like-named read-outs stand apart in the source and are kept apart here.
# Experiments:
# [1] = biological target: T1, HCV NS5B (Hepatitis C virus genotype 1b, UniProt Q9WMX2); test: Inhibition of viral RNA-dependent RNA polymerase (RdRp), in vitro biochemical assay; set-up: species or system HCV genotype 1b virus (BB7); settings: HCV NS5B RdRp, BB7, read-out: HCV pol-BB7 IC50
# T1 construct: fusion protein, of which the carboxyl terminal 21 amino acids were removed to enhance its solubility; His tag (GSHHHHHH); made in house; host or cells: E. coli
# Outline: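 IC50 values are the concentrations that halve in vitro RNA synthesis by HCV NS5B polymerase. The enzyme was a C-terminally truncated (Δ21), His-tagged genotype 1b (BB7 consensus) protein purified from E. coli.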
# [2] = tested on: HCV replicon (BB7 sequence) in Huh-7-Clone A cells; test: HCV replicon assay: ELISA of NS5A protein in replicon-containing cells (Inhibition of Viral RNA Replication); format: cell-based; settings: Hepatitis C virus, read-out: Replicon
# Outline: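 EC50 taken from an 8-point serially diluted dose curve, with NS5A level as read-out: fixed cells probed with primary monoclonal and HRP-conjugated secondary, TMB developed 30 min, OD 650 nm. Compound exposure 72 h in Huh-7-Clone A replicon cells (BB7 sequence).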
# [3] = HCV replicon assay, ranges of EC50
structure (smiles),measurement,setting,value
"CNC(=O)c1c(-c2ccc(F)cc2)oc2cc(-c3cc(C)no3)c(OC(C)C)cc12 [Example 233, 2-(4-Fluoro-phenyl)-5-isopropoxy-6-(3-methyl-isoxazol-5-yl)-benzofuran-3-carboxylic acid methylamide]",IC50,[1]; reported as range class,≤ 500 nM
same,EC50,"[2]; HCV replicon, range of EC50",< 30000 nM
"CNC(=O)c1c(-c2ccc(F)cc2)oc2cc(N(Cc3nsc(Cl)n3)S(C)(=O)=O)c(OC(C)C)cc12 [Example 234, 6-[(5-Chloro-[1,2,4]thiadiazol-3-ylmethyl)-methanesulfonyl-amino]-2-(4-fluoro-phenyl)-5-isopropoxy-benzofuran-3-carboxylic acid methylamide]",IC50,[1]; reported as range class,≤ 500 nM
same,EC50,"[2]; HCV replicon, range of EC50",< 10000 nM
"CNC(=O)c1c(-c2ccc(F)cc2)oc2cc(Nc3c(C)noc3C)c(OC(C)C)cc12 [Example 235, 6-(3,5-Dimethyl-isoxazol-4-ylamino)-2-(4-fluoro-phenyl)-5-isopropoxy-benzofuran-3-carboxylic acid methylamide]",IC50,[1]; reported as range class,5000 to 30000 nM
same,EC50,"[2]; HCV replicon, range of EC50",> 30000 nM
"CNC(=O)c1c(-c2ccc(F)cc2)oc2cc(-c3cccnc3)c(OC)cc12 [Example 236, 2-(4-Fluoro-phenyl)-5-methoxy-6-pyridin-3-yl-benzofuran-3-carboxylic acid methylamide]",IC50,[1]; reported as range class,≤ 500 nM
same,EC50,"[2]; HCV replicon, range of EC50",< 1000 nM
"CNC(=O)c1c(-c2ccc(F)cc2)oc2cc(CN(C)C)c(OC(C)C)cc12 [Example 237, 6-Dimethylaminomethyl-2-(4-fluoro-phenyl)-5-isopropoxybenzofuran 3-carboxylic acid methylamide]",IC50,[1]; reported as range class,5000 to 30000 nM
same,EC50,"[2]; HCV replicon, range of EC50",< 30000 nM
"CNC(=O)c1c(-c2ccc(F)cc2)oc2cc(C(O)C(C)C)c(OC(C)C)cc12 (stereo not drawn) [Example 238, 2-(4-Fluoro-phenyl)-6-(1-hydroxy-2-methyl-propyl)-5-isopropoxy-benzofuran-3-carboxylic acid methylamide]",IC50,[1]; reported as range class,≤ 500 nM
same,EC50,"[2]; HCV replicon, range of EC50",< 1000 nM
"CNC(=O)c1c(-c2ccc(F)cc2)oc2cc(-c3cn[nH]c3)c(OC(C)C)cc12 [Example 239, 2-(4-Fluoro-phenyl)-5-isopropoxy-6-(1H-pyrazol-4-yl)-benzofuran-3-carboxylic acid methylamide]",IC50,[1]; reported as range class,5000 to 30000 nM
same,EC50,"[2]; HCV replicon, range of EC50",< 10000 nM
"CNC(=O)c1c(-c2ccc(F)cc2)oc2cc(N(CCOC)S(C)(=O)=O)c(OC)cc12 [Example 240, 2-(4-Fluoro-phenyl)-6-[methanesulfonyl-(2-methoxy-ethyl)-amino]-5-methoxy-benzofuran-3-carboxylic acid methylamide]",IC50,[1]; reported as range class,≤ 500 nM
same,EC50,"[2]; HCV replicon, range of EC50",< 1000 nM
"CNC(=O)c1c(-c2ccc(F)cc2)oc2cc(-c3cc(C4CC4)no3)c(OC(C)C)cc12 [Example 241, 6-(3-Cyclopropyl-isoxazol-5-yl)-2-(4-fluoro-phenyl)-5-isopropoxy-benzofuran-3-carboxylic acid methylamide]",IC50,[1]; reported as range class,500 to 5000 nM
same,EC50,"[2]; HCV replicon, range of EC50",< 10000 nM
"CNC(=O)c1c(-c2ccc(F)cc2)oc2cc(-c3cc(COC)no3)c(OC(C)C)cc12 [Example 242, 2-(4-Fluoro-phenyl)-5-isopropoxy-6-(3-methoxymethyl-isoxazol-5-yl)-benzofuran-3-carboxylic acid methylamide]",IC50,[1]; reported as range class,500 to 5000 nM
same,EC50,"[2]; HCV replicon, range of EC50",30000 nM
"CNC(=O)c1c(-c2ccc(F)cc2)oc2cc(NS(C)(=O)=O)ccc12 [Example 243, 2-(4-Fluoro-phenyl)-6-methanesulfonylamino-benzofuran-3-carboxylic acid methylamide]",IC50,[1]; reported as range class,500 to 5000 nM
same,EC50,"[2]; HCV replicon, range of EC50",< 10000 nM
"CNC(=O)c1c(-c2ccc(F)cc2)oc2cc(-c3ncc[nH]3)c(OC(C)C)cc12 [Example 244, 2-(4-Fluoro-phenyl)-6-(1H-imidazol-2-yl)-5-isopropoxy-benzofuran-3-carboxylic acid methylamide]",IC50,[1]; reported as range class,≤ 500 nM
same,EC50,"[2]; HCV replicon, range of EC50",< 1000 nM
"CNC(=O)c1c(-c2ccc(F)cc2)oc2cc(-c3cc(C)nn3C)c(OC(C)C)cc12 [Example 245, 6-(2,5-Dimethyl-2H-pyrazol-3-y1)-2-(4-fluoro-phenyl)-5-isopropoxybenzofuran 3-carboxylic acid methylamide]",IC50,[1]; reported as range class,500 to 5000 nM
same,EC50,"[2]; HCV replicon, range of EC50",< 10000 nM
"CNC(=O)c1c(-c2ccc(F)cc2)oc2cc(-c3c(C)n[nH]c3C)c(OC(C)C)cc12 [Example 246, 6-(3,5-Dimethyl-1H-pyrazol-4-yl)-2-(4-fluoro-phenyl)-5-isopropoxy-benzofuran-3-carboxylic acid methylamide]",IC50,[1]; reported as range class,≤ 500 nM
same,EC50,"[2]; HCV replicon, range of EC50",< 1000 nM
"CNC(=O)c1c(-c2ccc(F)cc2)oc2cc(-c3cc(C)n[nH]3)c(OC(C)C)cc12 [Example 247, 2-(4-Fluoro-phenyl)-5-isopropoxy-6-(5-methyl-2H-pyrazol-3-yl)-benzofuran-3-carboxylic acid methylamide]",IC50,[1]; reported as range class,500 to 5000 nM
same,EC50,"[2]; HCV replicon, range of EC50",< 10000 nM
"CNC(=O)c1c(-c2ccc(F)cc2)oc2cc(-c3cc(C)n(C)n3)c(OC(C)C)cc12 [Example 248, 6-(1,5-Dimethyl-1H-pyrazol-3-yl)-2-(4-fluoro-phenyl)-5-isopropoxy-benzofuran-3-carboxylic acid methylamide]",IC50,[1]; reported as range class,500 to 5000 nM
same,EC50,"[2]; HCV replicon, range of EC50",< 10000 nM
"CNC(=O)c1c(-c2ccc(F)cc2)oc2cc(CN(C)S(C)(=O)=O)c(OC(C)C)cc12 [Example 249, 2-(4-Fluoro-phenyl)-5-isopropoxy-6-[(methanesulfonyl-methyl-amino)-methyl]-benzofuran-3-carboxylic acid methylamide]",IC50,[1]; reported as range class,≤ 500 nM
same,EC50,"[2]; HCV replicon, range of EC50",< 10000 nM
"CNC(=O)c1c(-c2ccc(F)cc2)oc2cc(N3CCOCC3)c(OCC(C)(C)O)cc12 [Example 250, 2-(4-Fluoro-phenyl)-5-(2-hydroxy-2-methyl-propoxy)-6-morpholin-4-ylbenzofuran-3-carboxylic acid methylamide]",IC50,[1]; class symbols A-D,500 to 5000 nM
same,EC50,[2]; [3],< 10000 nM
"CCC(C)(O)COc1cc2c(C(=O)NC)c(-c3ccc(F)cc3)oc2cc1N1CCOCC1 (stereo not drawn) [Example 251, 2-(4-Fluoro-phenyl)-5-(2-hydroxy-2-methyl-butoxy)-6-morpholin-4-yl-benzofuran-3-carboxylic acid methylamide]",IC50,[1]; class symbols A-D,500 to 5000 nM
same,EC50,[2]; [3],< 10000 nM
"CNC(=O)c1c(-c2ccc(F)cc2)oc2cc(N3CCOCC3)c(OCC(C)O)cc12 (stereo not drawn) [Example 252, 2-(4-Fluoro-phenyl)-5-(2-hydroxy-propoxy)-6-morpholin-4-yl-benzofuran-3-carboxylic acid methylamide]",IC50,[1]; class symbols A-D,500 to 5000 nM
same,EC50,[2]; [3],< 10000 nM
"CNC(=O)c1c(-c2ccc(F)cc2)oc2cc(N(CC(C)O)S(C)(=O)=O)c(OC(C)C)cc12 (stereo not drawn) [Example 253, 2-(4-Fluoro-phenyl)-6-[(2-hydroxy-propyl)-methanesulfonyl-amino]-5-isopropoxy-benzofuran-3-carboxylic acid methylamide]",IC50,[1]; class symbols A-D,≤ 500 nM
same,EC50,[2]; [3],< 1000 nM
"CNC(=O)c1c(-c2ccc(F)cc2)oc2cc(N3CCOCC3)c(OC(C)c3nccs3)cc12 (stereo not drawn) [Example 254, 2-(4-Fluoro-phenyl)-6-morpholin-4-yl-5-(1-thiazol-2-yl-ethoxy)-benzofuran-3-carboxylic acid methylamide]",IC50,[1]; class symbols A-D,≤ 500 nM
same,EC50,[2]; [3],< 1000 nM
"CCN(c1cc2oc(-c3ccc(F)cc3)c(C(=O)NC)c2cc1OC(C)C)S(C)(=O)=O [Example 255, 6-(Ethyl-methanesulfonyl-amino)-2-(4-fluoro-phenyl)-5-isopropoxy-benzofuran-3-carboxylic acid methylamide]",IC50,[1]; class symbols A-D,≤ 500 nM
same,EC50,[2]; [3],< 1000 nM
"CNC(=O)c1c(-c2ccc(F)cc2)oc2cc(-c3c(C)n[nH]c3C)c(OC)cc12 [Example 256, 6-(3,5-Diinethyl-1H-pyrazol-4-yl)-2-(4-fluoro-phenyl)-5-methoxy-benzofuran-3-carboxylic acid methylamide]",IC50,[1]; class symbols A-D,≤ 500 nM
same,EC50,[2]; [3],< 1000 nM
"CNC(=O)c1c(-c2ccc(F)cc2)oc2cc(-c3cn[nH]c3C)c(OC(C)C)cc12 [Example 257, 2-(4-Fluoro-phenyl)-5-isopropoxy-6-(5-methyl-1H-pyrazol-4-yl)-benzofuran-3-carboxylic acid methylamide]",IC50,[1]; class symbols A-D,≤ 500 nM
same,EC50,[2]; [3],< 1000 nM
"CNC(=O)c1c(-c2ccc(F)cc2)oc2ccc(OCc3cccc(C(=O)OC)c3)cc12 [Example 258, 3-[2-(4-Fluoro-phenyl)-3-methylcarbamoyl-benzofuran-5-yloxymethyl]-benzoic acid methyl ester]",IC50,[1]; class symbols A-D,≤ 500 nM
same,EC50,[2]; [3],> 30000 nM
"CNC(=O)c1c(-c2ccc(F)cc2)oc2ccc(OCc3ccc(C(=O)O)cc3)cc12 [Example 259, 4-[2-(4-Fluoro-phenyl)-3-methylcarbamoyl-benzofuran-5-yloxymethyl]-benzoic acid]",IC50,[1]; class symbols A-D,500 to 5000 nM
same,EC50,[2]; [3],< 30000 nM
"CNC(=O)c1c(-c2ccc(F)cc2)oc2ccc(OCc3cccc(C(=O)O)c3)cc12 [Example 260, 3-[2-(4-Fluoro-phenyl)-3-methylcarbamoyl-benzofuran-5-yloxymethyl]-benzoic acid]",IC50,[1]; class symbols A-D,≤ 500 nM
same,EC50,[2]; [3],> 30000 nM
"CNC(=O)c1c(-c2ccc(F)cc2)oc2cc(C(C)=O)c(OC)cc12 [Example 261, 6-Acetyl-2-(4-fluoro-phenyl)-5-methoxy-benzofuran-3-carboxylic acid methylamide]",IC50,[1]; class symbols A-D,≤ 500 nM
same,EC50,[2]; [3],< 1000 nM
"CNC(=O)c1c(-c2ccc(F)cc2)oc2cc(N3CCOCC3)c(OCc3ccc(C(=O)OC)cc3)cc12 [Example 262, 4-[2-(4-Fluoro-phenyl)-3-methylcarbamoyl-6-morpholin-4-yl-benzofuran-5-yloxymethyl]-benzoic acid methyl ester]",IC50,[1]; class symbols A-D,≤ 500 nM
same,EC50,[2]; [3],< 10000 nM

# Reference: US7265152B2 (ViroPharma Incorporated, priority 2002, dated 2007)
